Data as given in patent US20080063668A1, “Nitroimidazole and terconazole composition and method” (priority 2006, published 2008).

Experiments:
[1] = Solubilization of terconazole in water with acid (crystal observation); assay type: physicochemical
Method: Weighed amounts of terconazole were added to separate containers including an acid in water, applying heat, if necessary, to dissolve the terconazole. The amount of acid was selected to be about equimolar with the amount of terconazole added. After the terconazole was dissolved, each solution was cooled to about 4° C. to force crystallization of the terconazole. If crystals were not observed upon cooling, seed crystals of terconazole were then added and the solutions were again cooled to about 4° C. for about 72 hours. After allowing for crystal formation in all solutions, the solutions were allowed to warm to room temperature (about 20° C.).
Table 2 includes dissolution data for a number of compositions comprising varying amounts of terconazole and various acids. The data in Table 2 clearly indicate that solutions having a terconazole concentration of at least about 3 percent by weight and free from terconazole crystals at 20° C. were obtained utilizing tartaric acid and malic acid.

Atopobium vaginae BAA-55 = assay: Inhibition of bacteria growth, drug dilution tubes, anaerobic; assay type: cell-based; design: key to growth: (+) for growth; (−) for no growth; (±) for suboptimal growth after an initial observation of growth
Method: Serial dilutions of tinidazole and terconazole were prepared by adding measured amounts of each substance to water (both individually and in combination). Seven bacterial organisms that are common pathogens in bacterial vaginosis were grown anaerobically in the medium as listed in Table 4 under a N2/H2/CO2 (85:5:10) head space atmosphere. [table] These cultures were diluted to a 0.5 McFarland standard prior to inoculation of drug dilution tubes. One (1) mL of the 0.5 McFarland preparation was inoculated to an anaerobically prepared test tube containing 0.8 mL of Difco anaerobic medium (DAMM) and 0.2 mL of appropriate diluted antimicrobial or antimicrobial combination for a total of 2 mL. The inoculated tubes were then incubated at 37° C. and monitored daily for growth. Growth was scored with a (+) for growth, (−) for no growth, and (±) for suboptimal growth after an initial observation of growth. Tinidazole is abbreviated as TNZ and terconazole is abbreviated as TER in Tables 5 through 11.

[2] = Solubilization of tinidazole in water with acid (crystal observation); assay type: physicochemical; conditions: 20° C., at least 14 days
Method: Weighed amounts of tinidazole were added to separate containers including an acid in water, applying heat, if necessary, to dissolve the tinidazole. The amount of acid was selected to be about equimolar with the amount of tinidazole added. After the tinidazole was dissolved, each solution was cooled to about 2° C. to force crystallization of some of the tinidazole. If crystals were not observed upon cooling, seed crystals of tinidazole were added. After crystal formation was observed, the solutions were allowed to warm to room temperature (about 20° C.). […] The absence of crystals after 14 days indicates effective dissolution of tinidazole. Table 1 includes dissolution data for a number of compositions comprising varying amounts of tinidazole and various acids. The data in Table 1 clearly indicate that solutions having a tinidazole concentration of at least about 0.5 percent by weight and free from tinidazole crystals at 20° C. were obtained utilizing citric acid, hydrochloric acid, acetic acid, tartaric acid, and malic acid. Tinidazole concentrations as high as about 0.55 percent by weight were obtained utilizing tartaric acid and citric acid.

[3] = Combined solubilization of tinidazole and terconazole in water with citric acid; assay type: physicochemical; conditions: 20° C., terconazole about 0.8 percent by weight
Method: Weighed amounts of tinidazole and terconazole were added to separate containers including citric acid in water, applying heat, if necessary, to dissolve the tinidazole and terconazole. The amount of citric acid was selected to be about equimolar with the molar amount of tinidazole and terconazole added. After the tinidazole and terconazole was dissolved, each solution was cooled to about 4° C. to force crystallization of the tinidazole and terconazole. If crystals were not observed upon cooling, seed crystals of tinidazole were added and the solutions were again cooled to about 4° C. […] The absence of crystals after 14 days indicates effective dissolution of tinidazole and terconazole. Table 3 includes dissolution data for a number of compositions comprising varying amounts of tinidazole, terconazole and citric acid. The data in Table 3 clearly indicate that solutions having a tinidazole concentration of at least about 0.6 percent by weight and a terconazole concentration of about 0.8 percent by weight and free from crystals at 20° C. were obtained utilizing citric acid.

CC(C)N1CCN(c2ccc(OCC3COC(Cn4cncn4)(c4ccc(Cl)cc4Cl)O3)cc2)CC1 (stereo not drawn) [TER, cis-1-[p[[2-(2,4-dichlorophenyl)-2-(1 H-1,2,4-triazol-1-ylmethyl)-1,3-dioxolan-4-yl]methoxy]phenyl]-4-isopropylpiperazine]
terconazole concentration of solutions free from terconazole crystals ([1]; 20° C., about 14 days, tartaric acid and malic acid): at least 3 percent by weight
terconazole solubilized ([1]; citric acid, separate study): 2.4 percent by weight
growth (Atopobium vaginae BAA-55; TER 3.1 μg/ml, DAY 1): (+)
growth (Atopobium vaginae BAA-55; TER 3.1 μg/ml, DAY 2): (+)
growth (Atopobium vaginae BAA-55; TER 3.1 μg/ml, DAY 3): (+)
growth (Atopobium vaginae BAA-55; TER 3.1 μg/ml, DAY 4): (+)
growth (Atopobium vaginae BAA-55; TER 3.1 μg/ml, DAY 5): (+)
growth (Atopobium vaginae BAA-55; TER 6.2 μg/ml, DAY 1): (+)
growth (Atopobium vaginae BAA-55; TER 6.2 μg/ml, DAY 2): (+)
growth (Atopobium vaginae BAA-55; TER 6.2 μg/ml, DAY 3): (+)
growth (Atopobium vaginae BAA-55; TER 6.2 μg/ml, DAY 4): (+)
growth (Atopobium vaginae BAA-55; TER 6.2 μg/ml, DAY 5): (+)
growth (Atopobium vaginae BAA-55; TER 12.5 μg/ml, DAY 1): (+)
growth (Atopobium vaginae BAA-55; TER 12.5 μg/ml, DAY 2): (+)
growth (Atopobium vaginae BAA-55; TER 12.5 μg/ml, DAY 3): (+)
growth (Atopobium vaginae BAA-55; TER 12.5 μg/ml, DAY 4): (+)
growth (Atopobium vaginae BAA-55; TER 12.5 μg/ml, DAY 5): (+)
growth (Atopobium vaginae BAA-55; TER 25 μg/ml, DAY 1): (+)
growth (Atopobium vaginae BAA-55; TER 25 μg/ml, DAY 2): (+)
growth (Atopobium vaginae BAA-55; TER 25 μg/ml, DAY 3): (+)
growth (Atopobium vaginae BAA-55; TER 25 μg/ml, DAY 4): (+)
growth (Atopobium vaginae BAA-55; TER 25 μg/ml, DAY 5): (+)
growth (Atopobium vaginae BAA-55; TER 50 μg/ml, DAY 1): (+)
growth (Atopobium vaginae BAA-55; TER 50 μg/ml, DAY 2): (+)
growth (Atopobium vaginae BAA-55; TER 50 μg/ml, DAY 3): (+)
growth (Atopobium vaginae BAA-55; TER 50 μg/ml, DAY 4): (+)
growth (Atopobium vaginae BAA-55; TER 50 μg/ml, DAY 5): (+)
growth (Atopobium vaginae BAA-55; TER 100 μg/ml, DAY 1): (−)
growth (Atopobium vaginae BAA-55; TER 100 μg/ml, DAY 2): (−)
growth (Atopobium vaginae BAA-55; TER 100 μg/ml, DAY 3): (+)
growth (Atopobium vaginae BAA-55; TER 100 μg/ml, DAY 4): (+)
growth (Atopobium vaginae BAA-55; TER 100 μg/ml, DAY 5): (+)
growth (Atopobium vaginae BAA-55; TER 200 μg/ml, DAY 1): (−)
growth (Atopobium vaginae BAA-55; TER 200 μg/ml, DAY 2): (−)
growth (Atopobium vaginae BAA-55; TER 200 μg/ml, DAY 3): (−)
growth (Atopobium vaginae BAA-55; TER 200 μg/ml, DAY 4): (+)
growth (Atopobium vaginae BAA-55; TER 200 μg/ml, DAY 5): (+)
growth (Atopobium vaginae BAA-55; TER 400 μg/ml, DAY 1): (−)
growth (Atopobium vaginae BAA-55; TER 400 μg/ml, DAY 2): (−)
growth (Atopobium vaginae BAA-55; TER 400 μg/ml, DAY 3): (−)
growth (Atopobium vaginae BAA-55; TER 400 μg/ml, DAY 4): (−)
growth (Atopobium vaginae BAA-55; TER 400 μg/ml, DAY 5): (−)
growth (Atopobium vaginae BAA-55; TER 800 μg/ml, DAY 1): (−)
growth (Atopobium vaginae BAA-55; TER 800 μg/ml, DAY 2): (−)
growth (Atopobium vaginae BAA-55; TER 800 μg/ml, DAY 3): (−)
growth (Atopobium vaginae BAA-55; TER 800 μg/ml, DAY 4): (−)
growth (Atopobium vaginae BAA-55; TER 800 μg/ml, DAY 5): (−)
antibacterial activity compared with tinidazole (Atopobium vaginae BAA-55; Tables 6 through 11): superior to the antibacterial compound tinidazole

CCS(=O)(=O)CCn1c([N+](=O)[O-])cnc1C [TNZ, 1-[2-(ethylsulfonyl)ethyl]-2-methyl-5-nitroimidazole]
growth (Atopobium vaginae BAA-55; TNZ 2 μg/ml, DAY 1): (+)
growth (Atopobium vaginae BAA-55; TNZ 2 μg/ml, DAY 2): (+)
growth (Atopobium vaginae BAA-55; TNZ 2 μg/ml, DAY 3): (+)
growth (Atopobium vaginae BAA-55; TNZ 2 μg/ml, DAY 4): (+)
growth (Atopobium vaginae BAA-55; TNZ 2 μg/ml, DAY 5): (+)
growth (Atopobium vaginae BAA-55; TNZ 3.9 μg/ml, DAY 1): (+)
growth (Atopobium vaginae BAA-55; TNZ 3.9 μg/ml, DAY 2): (+)
growth (Atopobium vaginae BAA-55; TNZ 3.9 μg/ml, DAY 3): (+)
growth (Atopobium vaginae BAA-55; TNZ 3.9 μg/ml, DAY 4): (+)
growth (Atopobium vaginae BAA-55; TNZ 3.9 μg/ml, DAY 5): (+)
growth (Atopobium vaginae BAA-55; TNZ 7.8 μg/ml, DAY 1): (+)
growth (Atopobium vaginae BAA-55; TNZ 7.8 μg/ml, DAY 2): (+)
growth (Atopobium vaginae BAA-55; TNZ 7.8 μg/ml, DAY 3): (+)
growth (Atopobium vaginae BAA-55; TNZ 7.8 μg/ml, DAY 4): (+)
growth (Atopobium vaginae BAA-55; TNZ 7.8 μg/ml, DAY 5): (+)
growth (Atopobium vaginae BAA-55; TNZ 15.6 μg/ml, DAY 1): (−)
growth (Atopobium vaginae BAA-55; TNZ 15.6 μg/ml, DAY 2): (+)
growth (Atopobium vaginae BAA-55; TNZ 15.6 μg/ml, DAY 3): (+)
growth (Atopobium vaginae BAA-55; TNZ 15.6 μg/ml, DAY 4): (+)
growth (Atopobium vaginae BAA-55; TNZ 15.6 μg/ml, DAY 5): (+)
growth (Atopobium vaginae BAA-55; TNZ 31.3 μg/ml, DAY 1): (−)
growth (Atopobium vaginae BAA-55; TNZ 31.3 μg/ml, DAY 2): (+)
growth (Atopobium vaginae BAA-55; TNZ 31.3 μg/ml, DAY 3): (+)
growth (Atopobium vaginae BAA-55; TNZ 31.3 μg/ml, DAY 4): (+)
growth (Atopobium vaginae BAA-55; TNZ 31.3 μg/ml, DAY 5): (+)
growth (Atopobium vaginae BAA-55; TNZ 62.5 μg/ml, DAY 1): (−)
growth (Atopobium vaginae BAA-55; TNZ 62.5 μg/ml, DAY 2): (+)
growth (Atopobium vaginae BAA-55; TNZ 62.5 μg/ml, DAY 3): (+)
growth (Atopobium vaginae BAA-55; TNZ 62.5 μg/ml, DAY 4): (+)
growth (Atopobium vaginae BAA-55; TNZ 62.5 μg/ml, DAY 5): (+)
growth (Atopobium vaginae BAA-55; TNZ 125 μg/ml, DAY 1): (−)
growth (Atopobium vaginae BAA-55; TNZ 125 μg/ml, DAY 2): (+)
growth (Atopobium vaginae BAA-55; TNZ 125 μg/ml, DAY 3): (+)
growth (Atopobium vaginae BAA-55; TNZ 125 μg/ml, DAY 4): (+)
growth (Atopobium vaginae BAA-55; TNZ 125 μg/ml, DAY 5): (+)
growth (Atopobium vaginae BAA-55; TNZ 250 μg/ml, DAY 1): (−)
growth (Atopobium vaginae BAA-55; TNZ 250 μg/ml, DAY 2): (+)
growth (Atopobium vaginae BAA-55; TNZ 250 μg/ml, DAY 3): (+)
growth (Atopobium vaginae BAA-55; TNZ 250 μg/ml, DAY 4): (+)
growth (Atopobium vaginae BAA-55; TNZ 250 μg/ml, DAY 5): (+)
growth (Atopobium vaginae BAA-55; TNZ 500 μg/ml, DAY 1): (−)
growth (Atopobium vaginae BAA-55; TNZ 500 μg/ml, DAY 2): (−)
growth (Atopobium vaginae BAA-55; TNZ 500 μg/ml, DAY 3): (+)
growth (Atopobium vaginae BAA-55; TNZ 500 μg/ml, DAY 4): (+)
growth (Atopobium vaginae BAA-55; TNZ 500 μg/ml, DAY 5): (+)
tinidazole concentration of solutions free from tinidazole crystals ([2]; citric acid, hydrochloric acid, acetic acid, tartaric acid, and malic acid, about equimolar): at least 0.5 percent by weight
tinidazole concentration of solutions free from tinidazole crystals ([2]; tartaric acid and citric acid): about 0.55 percent by weight
tinidazole concentration of solutions free from crystals [3]: at least 0.6 percent by weight
